The source of these data is ChEMBL document CHEMBL2331101, “Aldosterone synthase inhibitors” (ACS Med Chem Lett, 2013).

Type in all cases: cell-based
In one data set the target is T1, CYP11B1 (Homo sapiens, UniProt P15538).
T1 sequence (P15538 whole entry): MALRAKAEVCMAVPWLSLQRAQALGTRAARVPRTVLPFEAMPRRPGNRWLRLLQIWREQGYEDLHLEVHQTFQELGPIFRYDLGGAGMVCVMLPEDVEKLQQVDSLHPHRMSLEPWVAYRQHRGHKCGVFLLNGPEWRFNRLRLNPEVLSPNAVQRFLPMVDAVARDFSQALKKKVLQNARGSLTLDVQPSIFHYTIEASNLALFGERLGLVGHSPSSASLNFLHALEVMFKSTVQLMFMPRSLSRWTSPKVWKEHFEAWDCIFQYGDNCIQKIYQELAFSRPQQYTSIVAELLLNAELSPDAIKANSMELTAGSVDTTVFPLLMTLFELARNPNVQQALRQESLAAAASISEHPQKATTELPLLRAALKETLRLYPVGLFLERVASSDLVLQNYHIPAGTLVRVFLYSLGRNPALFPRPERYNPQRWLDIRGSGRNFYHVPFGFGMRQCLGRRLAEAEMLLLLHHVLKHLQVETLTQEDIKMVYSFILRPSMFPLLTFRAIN
The data set can be described thus: (§1) Inhibition of human Cyp11B1 transfected in chinese hamster V79MZ cells using deoxycorticosterone as substrate incubated for 60 mins prior to substrate addition measured after 25 mins by HPLC analysis. As to conditions: human, Chinese hamster V79MZ cells transfected with human CYP11B1, probe deoxycorticosterone.

Data set [1] has as its target T2, Cytochrome P450 11B2, mitochondrial (Homo sapiens, UniProt P19099).
T2 sequence (P19099 whole entry): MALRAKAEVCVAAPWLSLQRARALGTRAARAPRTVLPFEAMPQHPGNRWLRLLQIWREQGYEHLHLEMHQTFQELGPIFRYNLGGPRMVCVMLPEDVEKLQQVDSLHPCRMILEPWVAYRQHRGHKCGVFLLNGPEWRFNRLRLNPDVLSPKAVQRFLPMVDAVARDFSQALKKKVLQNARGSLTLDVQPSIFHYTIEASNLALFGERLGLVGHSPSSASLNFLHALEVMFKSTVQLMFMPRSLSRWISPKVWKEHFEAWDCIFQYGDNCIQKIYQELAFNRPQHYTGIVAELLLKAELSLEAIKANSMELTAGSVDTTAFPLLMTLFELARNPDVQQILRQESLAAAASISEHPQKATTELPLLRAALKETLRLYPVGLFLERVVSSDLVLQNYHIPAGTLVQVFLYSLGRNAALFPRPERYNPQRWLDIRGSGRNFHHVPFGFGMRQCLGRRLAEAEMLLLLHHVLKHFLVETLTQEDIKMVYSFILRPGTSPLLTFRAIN
Nature of the data set: Inhibition of human Cyp11B2 transfected in chinese hamster V79MZ cells using deoxycorticosterone as substrate incubated for 60 mins prior to substrate addition measured after 50 mins by HPLC analysis.

The target in data set [2] is T3, Cytochrome P450 11B1, mitochondrial (Homo sapiens, UniProt P15538).
T3 sequence (P15538 whole entry): T1 sequence (P15538 whole entry)
The data set is described as §1.

Structures are written as SMILES.

For `Cc1nnc2n1-c1cc(Cl)c(-c3cncc4ccccc34)cc1CC2`, at CYP11B1, the IC50 at 25 min is > 10000 nM.

For `COc1c(C)cncc1-c1cc2c(cc1F)-n1c(C)nnc1CC2`, the IC50 at 25 min at CYP11B1 was > 10000 nM.

`COC(C)(C)c1cncc(-c2ccc3c(c2)CCc2nnc(C)n2-3)c1`: the figures for the IC50 in data set [1] and in data set [2] were 5 nM and 108 nM, respectively.

On to `Cc1nnc2n1-c1c(Cl)cc(-c3cnccc3C(F)(F)F)cc1CC2`, for which the IC50 at 25 min against CYP11B1 is > 30000 nM.

As to `Cc1nnc2n1-c1ccc(-c3cncc4ccccc34)cc1CC2`, the values for the IC50 in data set [1] and in data set [2] were 5 nM and 407 nM, respectively.
